Literature values, collected in US9006272B2, “Pharmaceutical compositions and method for treating inflammation in cattle and other animals” (Intervet Inc., priority 2006, dated 2015).

Conditions: background statement

lipid solubility: very poor
SMILES: Cc1c(Nc2ncccc2C(=O)O)cccc1C(F)(F)F [flunixin meglumine]
